Tested on: 616215-338-R-J1-PDC complex spheroid growth, % test/control
Test: Anticancer human tumor 616215-338-R-J1-PDC patient-derived colon adenocarcinoma cell line growth inhibition [Asc]
Conditions: for IC50: curve of first compound; for viability, T/C: stronger effect = lower value
Summary of the method: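 Concentration series start at each agent's clinical Cmax, or at 10 microM when none is established, and drop in half-log steps; agents are applied alone or together to complex spheroids built with HUVEC and hMSC.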
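Note: spheroids exposed to agents for seven days before readout.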
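Throughout, for viability, T/C: 100% = DMSO vehicle control viability.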

Which IC50 (second compound 0.00316 µM) does the source give for O=C(c1cc(Cc2n[nH]c(=O)c3ccccc23)ccc1F)N1CCN(C(=O)C2CC2)CC1 + CNC(C)C(=O)NC1CN(S(=O)(=O)c2cccc(S(=O)(=O)N3CCC4CCC(C(=O)NC(c5ccccc5)c5ccccc5)N4C(=O)C(NC(=O)C(C)NC)C3)c2)CCC2CCC(C(=O)NC(c3ccccc3)c3ccccc3)N2C1=O here?
The IC50 was less than 31.6 nM.

And the IC50 (second compound 0.01 µM)?
The IC50 was greater than 10000 nM.

What about the IC50 (second compound 0.0316 µM) of the same compound?
The IC50 was greater than 10000 nM.

And the IC50 (second compound 0.1 µM)?
Its IC50 is greater than 10000 nM.

What about the IC50 (second compound 0.316 µM) of the same compound?
Its IC50 is greater than 10000 nM.

What about the IC50 (second compound 1 µM) of the same compound?
Its IC50 is greater than 10000 nM.

And the viability, T/C (second compound 0.00316 µM, first compound 0.0316 µM)?
Its viability, T/C is 8.47%.

What about the viability, T/C (second compound 0.00316 µM, first compound 0.1 µM) of the same compound?
The viability, T/C was 8.86%.

And the viability, T/C (second compound 0.00316 µM, first compound 0.316 µM)?
Its viability, T/C is 12.9%.

And the viability, T/C (second compound 0.00316 µM, first compound 1 µM)?
The viability, T/C was 10.3%.

What about the viability, T/C (second compound 0.00316 µM, first compound 3.16 µM) of the same compound?
The viability, T/C was 8.76%.

And the viability, T/C (second compound 0.00316 µM, first compound 10 µM)?
The viability, T/C was 7.09%.

And the viability, T/C (second compound 0.01 µM, first compound 0.0316 µM)?
Its viability, T/C is 93.3%.

What about the viability, T/C (second compound 0.01 µM, first compound 0.1 µM) of the same compound?
Its viability, T/C is 88.3%.

What about the viability, T/C (second compound 0.01 µM, first compound 0.316 µM) of the same compound?
The viability, T/C was 97.2%.

What about the viability, T/C (second compound 0.01 µM, first compound 1 µM) of the same compound?
Its viability, T/C is 95.6%.

What about the viability, T/C (second compound 0.01 µM, first compound 3.16 µM) of the same compound?
Its viability, T/C is 80.8%.

What about the viability, T/C (second compound 0.01 µM, first compound 10 µM) of the same compound?
Its viability, T/C is 76.9%.

What about the viability, T/C (second compound 0.0316 µM, first compound 0.0316 µM) of the same compound?
Its viability, T/C is 103%.

And the viability, T/C (second compound 0.0316 µM, first compound 0.1 µM)?
Its viability, T/C is 91%.

What about the viability, T/C (second compound 0.0316 µM, first compound 0.316 µM) of the same compound?
The viability, T/C was 102%.

And the viability, T/C (second compound 0.0316 µM, first compound 1 µM)?
Its viability, T/C is 103%.

What about the viability, T/C (second compound 0.0316 µM, first compound 3.16 µM) of the same compound?
The viability, T/C was 94.9%.

What about the viability, T/C (second compound 0.0316 µM, first compound 10 µM) of the same compound?
The viability, T/C was 78.1%.

And the viability, T/C (second compound 0.1 µM, first compound 0.0316 µM)?
Its viability, T/C is 100%.

What about the viability, T/C (second compound 0.1 µM, first compound 0.1 µM) of the same compound?
The viability, T/C was 101%.

What about the viability, T/C (second compound 0.1 µM, first compound 0.316 µM) of the same compound?
The viability, T/C was 94.2%.

What about the viability, T/C (second compound 0.1 µM, first compound 1 µM) of the same compound?
The viability, T/C was 95.5%.

And the viability, T/C (second compound 0.1 µM, first compound 3.16 µM)?
Its viability, T/C is 95.2%.

And the viability, T/C (second compound 0.1 µM, first compound 10 µM)?
Its viability, T/C is 78%.

What about the viability, T/C (second compound 0.316 µM, first compound 0.0316 µM) of the same compound?
The viability, T/C was 104%.

What about the viability, T/C (second compound 0.316 µM, first compound 0.1 µM) of the same compound?
The viability, T/C was 98%.

And the viability, T/C (second compound 0.316 µM, first compound 0.316 µM)?
The viability, T/C was 105%.

What about the viability, T/C (second compound 0.316 µM, first compound 1 µM) of the same compound?
The viability, T/C was 106%.

And the viability, T/C (second compound 0.316 µM, first compound 3.16 µM)?
The viability, T/C was 100%.

What about the viability, T/C (second compound 0.316 µM, first compound 10 µM) of the same compound?
The viability, T/C was 69.9%.

What about the viability, T/C (second compound 1 µM, first compound 0.0316 µM) of the same compound?
The viability, T/C was 102%.

What about the viability, T/C (second compound 1 µM, first compound 0.1 µM) of the same compound?
The viability, T/C was 102%.

What about the viability, T/C (second compound 1 µM, first compound 0.316 µM) of the same compound?
Its viability, T/C is 96.2%.

And the viability, T/C (second compound 1 µM, first compound 1 µM)?
Its viability, T/C is 97.1%.

And the viability, T/C (second compound 1 µM, first compound 3.16 µM)?
Its viability, T/C is 94.1%.

And the viability, T/C (second compound 1 µM, first compound 10 µM)?
Its viability, T/C is 80.9%.

With NC(=O)C(=Cn1cnc(-c2cc(C(F)(F)F)cc(C(F)(F)F)c2)n1)c1cncnc1 + CNC(C)C(=O)NC1CN(S(=O)(=O)c2cccc(S(=O)(=O)N3CCC4CCC(C(=O)NC(c5ccccc5)c5ccccc5)N4C(=O)C(NC(=O)C(C)NC)C3)c2)CCC2CCC(C(=O)NC(c3ccccc3)c3ccccc3)N2C1=O as the compound, how does the IC50 (second compound 0.00316 µM) read?
Its IC50 is greater than 300 nM.

What about the IC50 (second compound 0.01 µM) of the same compound?
Its IC50 is greater than 300 nM.

And the IC50 (second compound 0.0316 µM)?
The IC50 was greater than 300 nM.

What about the IC50 (second compound 0.1 µM) of the same compound?
The IC50 was greater than 300 nM.

And the IC50 (second compound 0.316 µM)?
The IC50 was greater than 300 nM.

And the IC50 (second compound 1 µM)?
The IC50 was 191 nM.

What about the viability, T/C (second compound 0.00316 µM, first compound 0.000949 µM) of the same compound?
Its viability, T/C is 104%.

What about the viability, T/C (second compound 0.00316 µM, first compound 0.003 µM) of the same compound?
Its viability, T/C is 105%.

And the viability, T/C (second compound 0.00316 µM, first compound 0.00949 µM)?
The viability, T/C was 94.3%.

And the viability, T/C (second compound 0.00316 µM, first compound 0.03 µM)?
Its viability, T/C is 83.3%.

And the viability, T/C (second compound 0.00316 µM, first compound 0.0949 µM)?
The viability, T/C was 73.9%.

What about the viability, T/C (second compound 0.00316 µM, first compound 0.3 µM) of the same compound?
The viability, T/C was 53.2%.

What about the viability, T/C (second compound 0.01 µM, first compound 0.000949 µM) of the same compound?
Its viability, T/C is 107%.

What about the viability, T/C (second compound 0.01 µM, first compound 0.003 µM) of the same compound?
Its viability, T/C is 108%.

What about the viability, T/C (second compound 0.01 µM, first compound 0.00949 µM) of the same compound?
Its viability, T/C is 96.2%.

And the viability, T/C (second compound 0.01 µM, first compound 0.03 µM)?
Its viability, T/C is 72%.

And the viability, T/C (second compound 0.01 µM, first compound 0.0949 µM)?
Its viability, T/C is 76.2%.

And the viability, T/C (second compound 0.01 µM, first compound 0.3 µM)?
The viability, T/C was 71.4%.

And the viability, T/C (second compound 0.0316 µM, first compound 0.000949 µM)?
The viability, T/C was 115%.

What about the viability, T/C (second compound 0.0316 µM, first compound 0.003 µM) of the same compound?
Its viability, T/C is 108%.

What about the viability, T/C (second compound 0.0316 µM, first compound 0.00949 µM) of the same compound?
Its viability, T/C is 95.8%.

What about the viability, T/C (second compound 0.0316 µM, first compound 0.03 µM) of the same compound?
Its viability, T/C is 64.6%.

And the viability, T/C (second compound 0.0316 µM, first compound 0.0949 µM)?
The viability, T/C was 78.4%.

And the viability, T/C (second compound 0.0316 µM, first compound 0.3 µM)?
The viability, T/C was 54.7%.

What about the viability, T/C (second compound 0.1 µM, first compound 0.000949 µM) of the same compound?
Its viability, T/C is 117%.

And the viability, T/C (second compound 0.1 µM, first compound 0.003 µM)?
Its viability, T/C is 110%.

And the viability, T/C (second compound 0.1 µM, first compound 0.00949 µM)?
Its viability, T/C is 102%.

What about the viability, T/C (second compound 0.1 µM, first compound 0.03 µM) of the same compound?
The viability, T/C was 68.5%.

And the viability, T/C (second compound 0.1 µM, first compound 0.0949 µM)?
Its viability, T/C is 70.5%.

And the viability, T/C (second compound 0.1 µM, first compound 0.3 µM)?
The viability, T/C was 68.5%.

And the viability, T/C (second compound 0.316 µM, first compound 0.000949 µM)?
The viability, T/C was 118%.

And the viability, T/C (second compound 0.316 µM, first compound 0.003 µM)?
Its viability, T/C is 118%.

What about the viability, T/C (second compound 0.316 µM, first compound 0.00949 µM) of the same compound?
The viability, T/C was 105%.

What about the viability, T/C (second compound 0.316 µM, first compound 0.03 µM) of the same compound?
The viability, T/C was 61.1%.

What about the viability, T/C (second compound 0.316 µM, first compound 0.0949 µM) of the same compound?
The viability, T/C was 60.9%.

What about the viability, T/C (second compound 0.316 µM, first compound 0.3 µM) of the same compound?
Its viability, T/C is 67%.

And the viability, T/C (second compound 1 µM, first compound 0.000949 µM)?
The viability, T/C was 112%.

And the viability, T/C (second compound 1 µM, first compound 0.003 µM)?
The viability, T/C was 110%.

What about the viability, T/C (second compound 1 µM, first compound 0.00949 µM) of the same compound?
Its viability, T/C is 71.1%.

What about the viability, T/C (second compound 1 µM, first compound 0.03 µM) of the same compound?
The viability, T/C was 88.2%.

What about the viability, T/C (second compound 1 µM, first compound 0.0949 µM) of the same compound?
Its viability, T/C is 59%.

And the viability, T/C (second compound 1 µM, first compound 0.3 µM)?
Its viability, T/C is 41.5%.
